Data published in patent US7691883B2, “Cinnamoyl compound and use of the same” (Sumitomo Chemical Company, Limited, priority 2003, dated 2010).

assay: Ability of a test compound to regulate transcription of a Type I collagen gene using the expression level of a reporter gene (COL-Luc luciferase) as an index; type: cell-based; settings: final concentration 1 μM; normal human fetal skin fibroblast transfected with COL-Luc; TGF-β, 40 hours; read-out: inhibition percentage (inhibitory effect on the ability of TGF-β to promote transcription of a Type I collagen gene)
Method: 1×10^8 cells of a normal human fetal skin fibroblast (Clontech, catalogue No. CC-2509) were cultured at 37° C. overnight under 5% CO2 atmosphere. After the cultured cells were washed with a sodium phosphate buffer (hereinafter, referred to as PBS) twice, 3 ml of PBS was added thereto and the cells were scraped away the wall of a vessel using a cell scraper (Nalgen, catalogue No. 179693). The scraped cells were collected by centrifugation (1,500 rpm, 4° C., 15 min), and these were suspended in 20 ml of PBS and centrifuged again. To the resulting precipitates were added 11 ml of Solution 2 and 4.8 μl of pronase of DNA Extraction Kit (Stratagene, catalogue No. 200600). After shaken at 60° C. for 1 hour, the resulting mixture was allowed to stand in ice for 10 minutes. Then, 4 ml of Solution 3 of the kit was added to the mixture. After mixed, the mixture was allowed to stand in ice for 5 minutes and then centrifuged (3,000 rpm, 4° C., 15 min) to recover a supernatant. To the recovered supernatant was added 2 μl of RNase per 1 ml of the supernatant and the mixture was allowed to stand at 37° C. for 15 minutes. To the mixture was added 2-fold volume of ethanol. After mixed, a white thread-like substance (genomic DNA) appeared and the substance was recovered. The recovered genomic DNA washed with 70% ethanol and then air-dried. The air-dried genomic DNA was dissolved in 500 μl of 10 mM Tris-HCl, 1 mM EDTA (pH 8.0) (hereinafter, referred to as TE).
The resulting genomic DNA solution (the amount equivalent to 1 μg of genomic DNA), each 1 μl (10 pmol/μl) of an oligonucleotide consisting of the nucleotide sequence represented by SEQ ID No:1 and an oligonucleotide consisting of the nucleotide sequence represented by SEQ ID No:2, 29 μL of distilled water, 5 μl of the buffer attached to TaKaRa LA Taq (TAKARA SHUZO, catalogue No. RR002A), 5 μL of a Mg^2+ solution, 5 μL of a dNTP mixture and 0.5 μl of TaKaRa LA Taq (TAKARA SHUZO, catalogue No. RR002A) were mixed. After the resulting mixed solution was incubated at 94° C. for 5 minutes, the mixed solution was subjected to 30 cycles, in which one cycle consists of incubation at 94° C. for 1 minute, at 60° C. for 1 minute and then at 72° C. for 1 minute. The mixed solution was electrophoresed on a 2% agarose gel to recover about 0.5 kb of a DNA. The recovered DNA was treated with phenol/chloroform and then precipitated with ethanol to recover the DNA. The resulting DNA was dissolved in ultrapure water. To this solution were added 2.5 μl of NheI and 2.5 μl of HindIII, and then incubated at 37° C. for 3 hours. Then, the solution was electrophoresed on a 2% agarose gel to recover about 3.5 kb of a DNA. The recovered DNA was precipitated with ethanol to recover again the DNA (hereinafter, referred to as the collagen promoter DNA).
On the other hand, the vector pGL3 (Promega, catalogue No. E1751) having the nucleotide sequence encoding firefly luciferase was digested with NheI and HindIII, and then subjected to agarose gel electrophoresis as described above to recover about 5 kb of a DNA. The recovered DNA was precipitated with ethanol to recover the DNA again. To the recovered DNA were added 44 μl of distilled water, 5 μl of Buffer attached to Alkaline Phosphatase (TAKARA SHUZO, catalogue No. 2120A) and 1 μl of Alkaline Phosphatase (TAKARA SHUZO, catalogue No. 2120A). The mixed solution was incubated at 65° C. for 30 minutes. Then, the mixed solution was treated with phenol/chloroform twice, and precipitated with ethanol to recover the DNA (hereinafter referred to as the Luc vector DNA). Then, after about 20 ng of the collagen promoter DNA and about 20 ng of the Luc vector DNA were mixed, the same amount of a DNA Ligation kit Ver2 enzyme solution was added and this was incubated overnight at 16° C. To the mixed solution was added Escherichia coli 5Hdα (TOYOBO, catalogue No. DNA-903), this was allowed to stand in ice for 30 minutes, and then incubated at 42° C. for 45 seconds. […]

SMILES	inhibition at 1 µM
COCCOC(=O)Nc1cccc(C=CC(=O)c2c(O)cc(C)oc2=O)c1 [(24a), 4-hydroxy-3-[3-[3-[(2-methoxyethoxy)carbonylamino]phenyl]-1-oxo-2-propenyl]-6-methyl-2H-pyran-2-one]	≥ 70%
C#CCNc1cc(C)oc(=O)c1C(=O)C=Cc1cccc(C=CC#N)c1 [(20b), 4-propargylamino-3-[3-[3-(2-cyanoethenyl)phenyl]-1-oxo-2-propenyl]-6-methyl-2H-pyran-2-one]	≥ 70%
C#CCOc1cccc(C=CC(=O)c2c(OCC=C)cc(C)oc2=O)c1 [(2b), 4-allyloxy-3-[3-(3-propargyloxyphenyl)-1-oxo-2-propenyl]-6-methyl-2H-pyran-2-one]	≥ 70%
COCC(=O)Nc1cccc(C=CC(=O)c2c(OC)c3ccccc3oc2=O)c1 [Compound (22d), 4-methoxy-3-[3-[3-(methoxyacetylamino)phenyl]-1-oxo-2-propenyl]-2H-1-benzopyran-2-one]	≥ 70%
COCC(=O)Nc1cccc(C=CC(=O)c2c(OC)cc(C)oc2=O)c1 [(22a), 4-methoxy-3-[3-[3-(methoxyacetylamino)phenyl]-1-oxo-2-propenyl]-6-methyl-2H-pyran-2-one]	≥ 70%
COCCNC(=O)c1ccc(C=CC(=O)c2c(O)cc(C)oc2=O)cc1 [(36a), 4-hydroxy-3-[3-[4-[(2-methoxyethyl)aminocarbonyl]phenyl]-1-oxo-2-propenyl]-6-methyl-2H-pyran-2-one]	≥ 70%
COCCOC(=O)Nc1cccc(C=CC(=O)c2c(N3CCCCC3)c3ccccc3oc2=O)c1 [(18e), 4-piperidino-3-[3-[3-[(2-methoxyethoxy)carbonylamino]phenyl]-1-oxo-2-propenyl]-2H-1-benzopyran-2-one]	≥ 70%
COc1c(C(=O)C=Cc2cccc(OCC#N)c2)c(=O)oc2ccccc12 [(15d), 4-methoxy-3-[3-[3-(cyanomethoxy)phenyl]-1-oxo-2-propenyl]-2H-1-benzopyran-2-one]	≥ 70%
N#CCOc1cccc(C=CC(=O)c2c(O)c3ccccc3oc2=O)c1 [(14d), 4-hydroxy-3-[3-[3-(cyanomethoxy)phenyl]-1-oxo-2-propenyl]-2H-1-benzopyran-2-one]	≥ 70%
C=CCOc1cccc(C=CC(=O)c2c(OC)cc(C)oc2=O)c1 [(5a), 4-methoxy-3-[3-(3-allyloxyphenyl)-1-oxo-2-propenyl]-6-methyl-2H-pyran-2-one]	≥ 70%
CSCCOc1cccc(C=CC(=O)c2c(N3CCCCC3)cc(C)oc2=O)c1 [(14b), 4-piperidino-3-[3-[3-(2-methylthioethoxy)phenyl]-1-oxo-2-propenyl]-6-methyl-2H-pyran-2-one]	≥ 70%
C#CCOc1ccc(C=CC(=O)c2c(OC)cc(C)oc2=O)cc1 [(10a), 4-methoxy-3-[3-(4-propargyloxyphenyl)-1-oxo-2-propenyl]-6-methyl-2H-pyran-2-one]	≥ 70%
C=CCOc1cccc(C=CC(=O)c2c(OCC=C)cc(C)oc2=O)c1 [(1b), 4-allyloxy-3-[3-(3-allyloxyphenyl)-1-oxo-2-propenyl]-6-methyl-2H-pyran-2-one]	≥ 70%
COCC(=O)Nc1cccc(C=CC(=O)c2c(N3CCCCC3)c3ccccc3oc2=O)c1 [(17e), 4-piperidino-3-[3-[3-(methoxyacetylamino)phenyl]-1-oxo-2-propenyl]-2H-1-benzopyran-2-one]	≥ 70%
COCCOC(=O)Nc1cccc(C=CC(=O)c2c(OC)cc(C)oc2=O)c1 [(25a), 4-methoxy-3-[3-[3-[(2-methoxyethoxy)carbonylamino]phenyl]-1-oxo-2-propenyl]-6-methyl-2H-pyran-2-one]	≥ 70%
COc1cc(C)oc(=O)c1C(=O)C=Cc1cccc(OCC#N)c1 [(15a), 4-methoxy-3-[3-[3-(cyanomethoxy)phenyl]-1-oxo-2-propenyl]-6-methyl-2H-pyran-2-one]	≥ 70%
COCCOC(=O)Nc1cccc(C=CC(=O)c2c(O)c3ccccc3oc2=O)c1 [(24d), 4-hydroxy-3-[3-[3-[(2-methoxyethoxy)carbonylamino]phenyl]-1-oxo-2-propenyl]-2H-1-benzopyran-2-one]	≥ 70%
C#CCOc1cccc(C=CC(=O)c2c(O)cc(C)oc2=O)c1 [(7a), 4-hydroxy-3-[3-(3-propargyloxyphenyl)-1-oxo-2-propenyl]-6-methyl-2H-pyran-2-one]	≥ 70%
COc1cc(C)oc(=O)c1C(=O)C=Cc1cccc(C=CC#N)c1 [(2a), 4-methoxy-3-[3-[3-(2-cyanoethenyl)phenyl]-1-oxo-2-propenyl]-6-methyl-2H-pyran-2-one]	≥ 70%
COC(=O)CNC(=O)c1cccc(C=CC(=O)c2c(N3CCCCC3)cc(C)oc2=O)c1 [(16b), 4-piperidino-3-[3-[3-[[(methoxycarbonylmethyl)amino]carbonyl]phenyl]-1-oxo-2-propenyl]-6-methyl-2H-pyran-2-one]	≥ 70%
Cc1cc(O)c(C(=O)C=Cc2ccc(C(=O)NCCO)cc2)c(=O)o1 [(32d), 4-hydroxy-3-[3-[4-[(2-hydroxyethyl)aminocarbonyl]phenyl]-1-oxo-2-propenyl]-6-methyl-2H-pyran-2-one]	≥ 70%
COCCOC(=O)Nc1cccc(C=CC(=O)c2c(OC)c3ccccc3oc2=O)c1 [(25d), 4-methoxy-3-[3-[3-[(2-methoxyethoxy)carbonylamino]phenyl]-1-oxo-2-propenyl]-2H-1-benzopyran-2-one]	≥ 70%
